Data from patent US9701650B2, “Derivatives of sobetirome” (OREGON HEALTH & SCIENCE UNIVERSITY, priority 2015, dated 2017).

Columns and labels:
[1] = 8-hour time course distribution study in mice (sobetirome in brain, liver, serum after ip administration); format: in vivo; settings: for AUC0-->t of sobetirome: ip 1.5 μmol/kg, 8 hour time course
Text: (§1) The single time point pilot study was followed up for 11 and 15 vs. sobetirome with an 8-hour time course distribution study in mice. […] The sobetirome AUC, Cmax, and Tmax values in brain, liver and serum resulting from systemic administration of sobetirome, prodrug 11, and prodrug 15 are shown in Table 1 and the curves used to obtain these values are shown in FIGS. 2A, 2B and 2C.
Animal Studies: Experimental protocols were in compliance with the National Institutes of Health Guide for the Care and Use of Laboratory Animals and approved by the Oregon Health & Science University Institutional Animal Care & Use Committee. Wild type male C57Bl/6 mice, aged 8-10 weeks, were housed in a climate controlled room with a 12 hour light-dark cycle with ad libitum access to food and water. […] Euthanasia was performed on three mice per time points at the following times (0.15 h, 0.5 h, 1 h, 2 h, 4 h, and 8 h) and the tissues and blood were harvested. Tissues were immediately frozen and blood was kept on ice for a minimum of 30 minutes and then spun down at 7,500×G for 15 minutes. Serum (100 uL) was collected and was stored with tissues at −80° C. until samples were processed.
(§2) Serum Processing: The serum samples were warmed to room temperature and 10 μL of 2.99 μM internal standard (D6-Sobetirome) was added to them. Acetonitrile (500 μL) was added and the sample was vortexed for 20 seconds. The sample was then centrifuged at 10,000×G for 15 minutes at 4° C. Next, 90% of the upper supernatant was transferred to a glass test tube and concentrated using a speedvac for 1.5 hours at 45° C. The dried sample was then dissolved in 400 μL of 50:50 ACN:H2O and vortexed for 20 seconds. The resulting mixture was transferred to an Eppendorf and centrifuged at 10,000×G for 15 minutes. The supernatant was filtered with 0.22 μM centrifugal filters and submitted for LC-MS/MS analysis. The standard curve was made with 100 μL of serum from an 8-10 week old mouse not injected with Sobetirome or prodrug. The processing was performed exactly the same except after filtering the sample was split amongst 6 vials. To 5 out of the 6 vials was added Sobetirome to make final concentrations in matrix of (0.1 pg/μL, 1 pg/μL, 10 pg/μL, 100 pg/μL, and 1000 pg/μL).
(§3) Brain Processing: The brain samples were warmed to room temperature and transferred to a homogenizer tube with 5 GoldSpec ⅛ chrome steel balls (Applied Industrial Technologies). The resulting tube was weighed and then 1 mL of H2O was added, followed by 10 μL of 2.99 μM internal standard (D6-sobetirome). The tube was homogenized with a Bead Bug® for 30 seconds and then transferred to a Falcon tube containing 3 mL of ACN. ACN (1 mL) was used to wash homogenizer tube and the solution was transferred back to the Falcon tube. The sample was then processed using the same method for the serum processing except the sample was concentrated in a glass tube using a speedvac for 4 hours at 45° C.
(§4) Liver Processing: The liver samples were warmed to room temperature and transferred to a homogenizer tube with 5 GoldSpec ⅛ chrome steel balls (Applied Industrial Technologies). The resulting tube was weighed and then 1 mL of H2O was added, followed by 10 μL of 2.99 μM internal standard (D6-Sobetirome). The tube was then homogenized with a Bead Bug for 30 seconds. A small sample (100 μL) was then taken from the homogenized mixture and processed. This was done because the liver levels found in some samples were too high for the LC-MS/MS instrument. The samples were then processed using the serum processing method.

[2] = pharmacokinetic study of sobetirome in mice (t1/2); settings: mouse, in vivo
Text: as §1

[3] = single time point biodistribution study in mice (brain, liver, serum sobetirome 30 minutes after ip administration, LC-MS/MS); format: in vivo; settings: for brain sobetirome levels compared to equimolar systemic injection of sobetirome / liver sobetirome levels compared to direct sobetirome injection / serum sobetirome levels compared to direct sobetirome injection: sobetirome measured; for CNS distribution of sobetirome (in words): ip administration of prodrug, versus sobetirome
Protocol: A biodistribution study in mice was performed on each prodrug to determine the brain, liver, and serum levels of sobetirome following a systemic (intraperitoneal) administration. The mice received an equimolar dose (1.5 μmol/kg) of prodrug and one cohort received the same dose of sobetirome as a control. Tissue and blood were collected 30 minutes post-injection and the concentration of sobetirome was determined using an LC-MS/MS. […] The brain/liver sobetirome ratio was increased compared to sobetirome injection by 5- and 10-fold for 11 and 15, respectively (FIG. 1C)
Animal Studies: Experimental protocols were in compliance with the National Institutes of Health Guide for the Care and Use of Laboratory Animals and approved by the Oregon Health & Science University Institutional Animal Care & Use Committee. Wild type male C57Bl/6 mice, aged 8-10 weeks, were housed in a climate controlled room with a 12 hour light-dark cycle with ad libitum access to food and water. Mice were injected once intraperitoneally (IP) with sobetirome and prodrugs at 3.05 μmol/kg. Euthanasia was performed on three mice per time points at the following times (0.15 h, 0.5 h, 1 h, 2 h, 4 h, and 8 h) and the tissues and blood were harvested. Tissues were immediately frozen and blood was kept on ice for a minimum of 30 minutes and then spun down at 7,500×G for 15 minutes. Serum (100 uL) was collected and was stored with tissues at −80° C. until samples were processed.
as §2, §3, §4

[4] = ip 1.5 μmol/kg, 30 minutes post-injection
[5] = male, C57Bl/6, mouse, in vivo, ip

Q: What does the source list for `Cc1cc(OCC(=O)O)cc(C)c1Cc1ccc(O)c(C(C)C)c1` [Sobetirome]?
A: AUC0-->t of sobetirome ([1]; mouse brain): 10.8 ng·h/g; AUC0-->t of sobetirome ([1]; mouse liver): 293 ng·h/g; AUC0-->t of sobetirome ([1]; mouse serum): 68.2 ng·h/g; half-life [2]: 1.5 h

Q: For `Cc1cc(OCC(=O)OCCN2CCOCC2)cc(C)c1Cc1ccc(O)c(C(C)C)c1` [Compound 9, 2-(morpholin-4-yl)ethyl 2-(4-{[4-hydroxy-3-(propan-2-yl)phenyl]methyl}-3,5-dimethylphenoxy)acetate], which “brain/serum ratio of sobetirome (in words)” value [3, 4] is on record?
A: The value was “did not significantly increase”.

Q: And the “brain sobetirome levels compared to equimolar systemic injection of sobetirome” value [3, 4]?
A: The value was “did not significantly increase”.

Q: For `Cc1cc(OCC(=O)OCC[N+](C)(C)C)cc(C)c1Cc1ccc(O)c(C(C)C)c1.[Br-]` [Compound 8, 2-(trimethylamino)ethyl 2-(4-{[4-hydroxy-3-(propan-2-yl)phenyl]methyl}-3,5-dimethylphenoxy)acetate hydrobromide], which “CNS distribution of sobetirome (in words)” value [3] is on record?
A: The value was “did not improve CNS distribution of sobetirome”.

Q: For `Cc1cc(OCC(=O)OC2CNC2)cc(C)c1Cc1ccc(O)c(C(C)C)c1` [Compound 15, azetidin-3-yl 2-(4-{[4-hydroxy-3-(propan-2-yl)phenyl]methyl}-3,5-dimethylphenoxy)acetate], which “Sobetirome Distribution AUCbrain/AUCliver” value [1, 5] is on record?
A: Its value is 0.20.

Q: What about the “Sobetirome Distribution AUCbrain/AUCserum” value [1, 5] of the same compound?
A: The value was 1.3.

Q: What about the “brain/serum ratio of sobetirome based on AUC” value [1, 5] of the same compound?
A: The value was 1.31.

Q: What about the “sobetirome exposure in brain compared to direct sobetirome injection” value ([1]; mouse, in vivo) of the same compound?
A: Its value is “increased sobetirome exposure”.

Q: What about the “sobetirome exposure in liver compared to direct sobetirome injection” value ([1]; mouse, in vivo) of the same compound?
A: The value was “decreased sobetirome exposure”.

Q: And the “sobetirome exposure in serum compared to direct sobetirome injection” value ([1]; mouse, in vivo)?
A: Its value is “decreased sobetirome exposure”.

Q: And the “CNS distribution properties compared to 11” value ([1]; mouse, in vivo, ip)?
A: The value was “superior CNS distribution properties”.

Q: What about the “increase in sobetirome AUC(brain)/AUC(liver) relative to sobetirome” value ([1]; mouse, in vivo, ip) of the same compound?
A: The value was “five-fold increase”.

Q: And the “time to reach Cmax” value ([1]; mouse, in vivo, ip)?
A: The value was 1 h.

Q: And the “brain sobetirome levels compared to equimolar systemic injection of sobetirome” value [3, 4]?
A: Its value is “significant brain sobetirome level increases”.

Q: What about the “liver sobetirome levels compared to direct sobetirome injection” value [3, 4] of the same compound?
A: Its value is “significantly lower”.

Q: And the “serum sobetirome levels compared to direct sobetirome injection” value [3, 4]?
A: Its value is “significantly lower”.

Q: And the “CNS distribution of sobetirome (in words)” value [3]?
A: Its value is “improved CNS distribution”.

Q: Which “sobetirome exposure in brain compared to direct sobetirome injection” value ([1]; mice, full time course) does the source give for `Cc1cc(OCC(=O)OCCN)cc(C)c1Cc1ccc(O)c(C(C)C)c1.Cl` [Compound 11, GC1-ethanolamine] here?
A: Its value is “increased sobetirome exposure”.

Q: What about the “sobetirome exposure in liver compared to direct sobetirome injection” value ([1]; mice, full time course) of the same compound?
A: The value was “decreased sobetirome exposure”.

Q: And the “sobetirome exposure in serum compared to direct sobetirome injection” value ([1]; mice, full time course)?
A: The value was “decreased sobetirome exposure”.

Q: What about the “brain sobetirome levels compared to equimolar systemic injection of sobetirome” value [3, 4] of the same compound?
A: Its value is “significant brain sobetirome level increases”.

Q: What about the “liver sobetirome levels compared to direct sobetirome injection” value [3, 4] of the same compound?
A: The value was “significantly lower”.

Q: And the “serum sobetirome levels compared to direct sobetirome injection” value [3, 4]?
A: Its value is “significantly lower”.

Q: What about the “CNS distribution of sobetirome (in words)” value [3] of the same compound?
A: The value was “improved CNS distribution”.
